In patent US20120027720A1, “PEPTIDE CONJUGATES” (priority 2008, published 2012):
Where no end group is shown, it is not given here. [ ]: non-standard residue; d: D form. Phe(4-CN) = N#Cc1ccc(C[C@H](N)C(=O)O)cc1; Phe(3-Me) = Cc1cccc(C[C@H](N)C(=O)O)c1; 2Pal = N[C@@H](Cc1ccccn1)C(=O)O; dAllylGly = C=CC[C@@H](N)C(=O)O; AllylGly = C=CC[C@H](N)C(=O)O; hCys = N[C@@H](CCS)C(=O)O; hSer = N[C@@H](CCO)C(=O)O; Pra = C#CC[C@H](N)C(=O)O

Key:
[1] = system: CaCo2 monolayers; test: Trans Epithelial Electric Resistance (TEER) across cell monolayer; assay type: cell-based; set-up: key to Reduced TEER: + indicates an enhancement of the permeability of the tight junctions were observed; − indicates no enhancement of permeability was observed; conditions: Caco-2 monolayer
Description: (§1) Agonists of tight junctions can be identified by their ability to enhance the flux of compounds (e.g. ions, Lucifer Yellow) through a cell monolayer that comprises tight junctions; or by their ability to reduce TEER across a cell monolayer that comprises tight junctions. Treatment of CaCo2 monolayers with peptide FCIGRL (SEQ ID NO: 1) led to a 51-fold enhancement of Lucifer Yellow permeability through CaCo2 monolayers compared to vehicle alone. Treatment of CaCo2 monolayers with peptide FCIGRL led to a 16-fold decrease in TEER across CaCo2 monolayers compared to vehicle alone.
(§2) Determination of TEER and Lucifer Yellow Flux
(§3) Prepare Modified Hank's Balanced Salt Solution (MHBSS) by obtaining 1 L bottle of HBSS removing 10 ml of HBSS and replacing it with 10 ml HEPES buffer pH 7.0. Adjust pH to 7.4±0.1 using concentrated NaOH (10N).
(§4) Remove Caco-2 cells from incubator, grown on 12-well, […], polycarbonate Transwell® filters (Corning) and record passage#, date cells seeded and age in days.
(§5) Aspirate cell culture medium from both the apical (AP) and basolateral (BL) compartments, replacing with 0.5 ml and 1.5 ml of MHBSS, respectively. Incubate cells at 37° C. for 30 minutes.
Using the MilliCell®-ERS instrument (Millipore), measure and record the transepithelial electrical resistance (TEER) across each filter and record.
(§6) Aspirate solution from the apical compartment of each filter (n=3 per condition) and replace with 0.5 ml of control and test solutions containing Lucifer Yellow and test compound if appropriate.
(§7) Place all plates into incubator set at 37° C. (±0.2), 50 RPM (±5) for a total of 180 minutes.
At t=30, 60, 120 and 180 minutes, measure and record the transepithelial electrical resistance (TEER) across each filter using the MilliCell-ERS instrument.
(§8) Cells: Caco-2 cells passage 40-60 grown on Transwell® plates for 21-28 days
(§9) Culture Medium: DMEM supplemented with 10% fetal bovine serum, 1% NEAA, 1% Penn/Strep
(§10) Buffers: Hank's Balanced Salt Solution (HBSS) without calcium and magnesium
(§11) Flasks: 100×20 mm Tissue culture dish Falcon.
(§12) Plates: 12 well polycarbonate Transwell® filters; 0.3 uM pore size

[2] = system: CaCo2 monolayers; test: Epithelial flux of Lucifer Yellow through cell monolayer; assay type: cell-based; set-up: key to Enhanced LY permeability: + indicates an enhancement of the permeability of the tight junctions were observed; − indicates no enhancement of permeability was observed; conditions: Lucifer Yellow flux, Caco-2 monolayer
Description: as §1, §2, §3, §4, §5, §6, §7
At t=60, 120 and 180 minutes remove 100 μl from each basolateral compartment and place it in a 96-well plate for Lucifer Yellow analysis, replace with 100 μl of MHBSS.
Make a Lucifer Yellow standard curve with the following dilutions (7500 μM, 3750 μM, 750 μM, 375 μM, 75 μM, 37.5 μM, 7.5 μM, 3.75 μM, 0.75 μM) and pipette […] of each into a 96-well plate except for the first three standards mentioned above which require a 1:10 dilutions prior to transferring to the 96-well plate.
Harvest the remaining start solutions and what is left in each apical compartment into 1.5 ml vials. Freeze at −20° C. for future analysis.
Analyze each 96-well plate in a Tecan Spectra Fluor Plus using Magellan at 485 and 535 nm.
as §8, §9, §10, §11, §12

| Substance | Reduced TEER [1] | Enhanced LY permeability [2] |
| --- | --- | --- |
| 162 (F[hCys]IGRL; also: peptide conjugate, Xaa: 'may be' homocysteine) [compound 162] | + | + |
| 163 (F[2Pal]IGRL; also: peptide conjugate, Xaa: 'may be' L-beta-(2-pyridyl)-alanine) [compound 163] | − | − |
| 164 (FL[dI]GRL-NH2; also: peptide conjugate) [compound 164] | − | − |
| 165 (F[dL]IGRL-NH2; also: peptide conjugate) [compound 165] | − | − |
| 166 (LRG[dI]LF-NH2; also: peptide conjugate) [compound 166] | − | − |
| 168 (F[L‑4,5‑dehydro‑leucine]IGRL; not fully specified; also: peptide conjugate) [compound 168] | − | + |
| 169 (Ac-F[hSer]IGR-NH2; also: peptide conjugate) [compound 169] | − | − |
| 170 (F[hSer][dI]GR-NH2; also: peptide conjugate) [compound 170] | − | − |
| 171 (Ac-F[hSer]IGRL-NH2; also: peptide conjugate) [compound 171] | − | − |
| 172 (F[hSer][dI]GRL; not fully specified; also: peptide conjugate, Xaa: 'may be' homoserine) [compound 172] | − | − |
| 173 ([Phe(4-CN)]FIGRL; also: peptide conjugate, Xaa: 'may be' L-4-cyano-phenylalanine) [compound 173] | − | − |
| 174 ([Phe(3-Me)]FIGRL; not fully specified; also: peptide conjugate) [compound 174] | − | − |
| 175 (F[L‑beta‑cyclopropyl‑alanine]IGRL; also: peptide conjugate) [compound 175] | − | − |
| 176 (F[Pra]IGR-NH2; N-terminus assumed; SMILES C#CC[C@H](NC(=O)[C@@H](N)Cc1ccccc1)C(=O)N[C@H](C(=O)NCC(=O)N[C@@H](CCCNC(=N)N)C(N)=O)[C@@H](C)CC) [compound 176] | − | − |
| 183 (F[AllylGly]IGRL-OH; N-terminus assumed; SMILES C=CC[C@H](NC(=O)[C@@H](N)Cc1ccccc1)C(=O)N[C@H](C(=O)NCC(=O)N[C@@H](CCCNC(=N)N)C(=O)N[C@@H](CC(C)C)C(=O)O)[C@@H](C)CC) [compound 183] | + | + |
| 184 (F[AllylGly]IGR-NH2; N-terminus assumed; SMILES C=CC[C@H](NC(=O)[C@@H](N)Cc1ccccc1)C(=O)N[C@H](C(=O)NCC(=O)N[C@@H](CCCNC(=N)N)C(N)=O)[C@@H](C)CC) [compound 184] | − | − |
| 185 (F[dAllylGly]IGR-NH2; N-terminus assumed; SMILES C=CC[C@@H](NC(=O)[C@@H](N)Cc1ccccc1)C(=O)N[C@H](C(=O)NCC(=O)N[C@@H](CCCNC(=N)N)C(N)=O)[C@@H](C)CC) [compound 185] | − | − |
